The values below come from patent US7138411B2, “Substituted benzopyran derivatives for the treatment of inflammation” (G.D. Searle & Co., priority 1997, dated 2006).

In general, IC50 refers to the midpoint of a concentration-inhibition curve. By melting point is commonly meant the temperature, or range, at which the solid turns liquid.

Data set [1] addresses T1, COX-2 (UniProt P35354).
T1 sequence (P35354 1-604): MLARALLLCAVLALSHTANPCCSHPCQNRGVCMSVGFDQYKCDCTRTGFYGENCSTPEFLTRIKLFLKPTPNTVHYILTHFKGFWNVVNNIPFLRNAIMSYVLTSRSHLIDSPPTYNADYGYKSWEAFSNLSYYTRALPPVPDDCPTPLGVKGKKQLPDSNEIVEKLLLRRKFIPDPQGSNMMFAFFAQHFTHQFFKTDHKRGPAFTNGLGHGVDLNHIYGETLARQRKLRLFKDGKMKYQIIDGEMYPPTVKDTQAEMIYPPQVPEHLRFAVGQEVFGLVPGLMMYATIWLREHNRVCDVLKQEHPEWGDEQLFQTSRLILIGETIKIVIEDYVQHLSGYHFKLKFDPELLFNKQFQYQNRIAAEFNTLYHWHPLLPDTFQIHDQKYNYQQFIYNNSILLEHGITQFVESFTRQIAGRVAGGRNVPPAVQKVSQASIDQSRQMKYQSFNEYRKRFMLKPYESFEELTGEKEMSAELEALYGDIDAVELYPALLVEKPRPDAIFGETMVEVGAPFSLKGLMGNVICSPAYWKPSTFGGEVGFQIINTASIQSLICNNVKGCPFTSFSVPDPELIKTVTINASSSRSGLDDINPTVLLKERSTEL
Description: Fast assay for COX-2 activity (PGE2 ELISA). It is filed as biochemical, human or murine. To be noted: fast assay: 10 min pre-incubation at 25° C., reaction stopped after two minutes, pH 7.5. For orientation: ELISA stands for enzyme-linked immunosorbent assay.

The target in the next data set is COX-1 (UniProt P23219). The data set is described as follows: Assay for COX-1 activity (PGE2 ELISA). Conditions: read-out: COX-1 IC50; 10–20 minutes pre-incubation, reaction stopped after ten minutes, pH 8.0.
In data set [2] the target is T1, COX-2. The data set is described as follows: Assay for COX-2 activity (PGE2 ELISA). To be noted: read-out: COX-2 IC50; 10–20 minutes pre-incubation, reaction stopped after ten minutes, pH 8.0.

Compound `O=C(O)C1=Cc2cc(Cl)cc(-c3ccc(Cl)cc3)c2OC1C(F)(F)F` (stereo not shown) [Example 125, 6-Chloro-8-(4-chlorophenyl)-2-(trifluoromethyl)-2H-1-benzopyran-3-carboxylic acid] registered a melting point of 205.5 to 207.3 °C. On COX-2 [1], this compound yielded an IC50 of less than 0.1 µM. Further, the half-maximal inhibitory concentration (IC50) on COX-1 was less than 0.1 µM. Further, the IC50 at COX-2 [2] was less than 0.1 µM.

In turn, `O=C(O)C1=Cc2c(F)ccc(Br)c2OC1C(F)(F)F` (stereo not shown) [Example 45, 8-Bromo-5-fluoro-2-trifluoromethyl-2H-1-benzopyran-3-carboxylic acid] showed a melting point of 221.7 to 223.3 °C. Also, 0.2 µM corresponded to half-maximal inhibition against COX-2 [1] (IC50). Further, at COX-1, the half-inhibitory concentration (IC50) was more than 100 µM. Moreover, the IC50 at COX-2 [2] was determined as 46 µM.

For the compound `O=C(O)C1=Cc2cc(Cl)cc(-c3ccccc3)c2OC1C(F)(F)F` (stereo not shown) [Example 129, 6-Chloro-8-phenyl-2-(trifluoromethyl)-2H-1-benzopyran-3-carboxylic acid], the melting point lay in the range of 196.3 to 197.7 °C. At COX-2 [1], this compound displayed an IC50 of 0.2 µM. Moreover, the half-maximal inhibitory concentration (IC50) on COX-1 turned out to be 0.3 µM. In addition, the IC50 on COX-2 [2] was less than 0.1 µM.

For `Cc1cc(Br)c2c(c1)C=C(C(=O)O)C(C(F)(F)F)O2` (stereo not shown) [Example 44, 8-Bromo-6-methyl-2-trifluoromethyl-2H-1-benzopyran-3-carboxylic acid], the melting point was 237 to 238 °C. This compound also showed an IC50 against COX-2 [1] of 0.3 µM. For the same compound, the IC50 on COX-1 was more than 100 µM. Also, the concentration for half-maximal inhibition (IC50) at COX-2 [2] was found to be 21 µM.

The compound `O=C(O)C1=Cc2cc(S(=O)(=O)N3CCOCC3)ccc2OC1C(F)(F)F` (stereo not shown) [Example 53, 6-[(4-Morpholino)sulfonyl]-2-trifluoromethyl-2H-1-benzopyran-3-carboxylic acid] came in with a melting point of 215.2 to 219.3 °C. For the same compound, the IC50 against COX-2 [1] was found to be 8 µM. The half-inhibitory concentration (IC50) at COX-1 was more than 100 µM. Moreover, the IC50 on COX-2 [2] stood at 6 µM.

Take `O=C(O)C1=Cc2cc(C(=O)c3ccc(Cl)cc3)ccc2OC1C(F)(F)F` (stereo not shown) [Example 97, 6-(4-Chlorobenzoyl)-2-(trifluoromethyl)-2H-1-benzopyran-3-carboxylic acid]: the melting point lay in the range of 268.3 to 269.4 °C. The IC50 against COX-2 [1] amounted to 0.2 µM. Also, the IC50 on COX-1 was 25 µM. The 50% inhibitory concentration (IC50) at COX-2 [2] was 0.1 µM.

`COc1ccc(Oc2cc3c(cc2Cl)C=C(C(=O)O)C(C(F)(F)F)O3)cc1` (stereo not shown) [Example 183, 6-Chloro-7-(4-methoxyphenoxy)-2-(trifluoromethyl)-2H-1-benzopyran-3-carboxylic acid] yielded a melting point of 213.2 to 214.3 °C. Besides, the half-inhibitory concentration (IC50) at COX-2 [1] was less than 0.1 µM. Further, on COX-1, the half-maximal inhibitory concentration (IC50) was found to be 4.1 µM. The 50% inhibitory concentration (IC50) at COX-2 [2] is less than 0.1 µM.

In turn, `O=C(O)C1=Cc2cc(C(=O)c3ccc(O)cc3)ccc2OC1C(F)(F)F` (stereo not shown) [Example 98, 6-(4-Hydroxybenzoyl)-2-(trifluoromethyl)-2H-1-benzopyran-3-carboxylic acid] returned a melting point of 234 to 239.5 °C. In addition, on COX-2 [1], it took 2 µM to reach half-maximal inhibition (IC50). Also, the IC50 at COX-1 stood at 19 µM. Besides, on COX-2 [2], the IC50 came out at 1.5 µM.

Consider `COc1cc(Cl)c2c(c1)C=C(C(=O)O)C(C(F)(F)F)O2` (stereo not shown) [Example 40, 8-Chloro-6-methoxy-2-trifluoromethyl-2H-1-benzopyran-3-carboxylic acid], for which the melting point was 204.5 to 206.9 °C. In addition, at COX-1, the IC50 is 43 µM.

Turning to `O=C(O)C1=Cc2cc(Cl)ccc2O[C@@H]1C(F)(F)F` [Example 66, (S)-6-Chloro-2-trifluoromethyl-2H-1-benzopyran-3-carboxylic acid], the IC50 was 82 µM on COX-2 [1], 16.9 µM at COX-1 and less than 0.1 µM on COX-2 [2].

`O=C(O)C1=Cc2cc(S(=O)(=O)NCc3ccccc3)ccc2OC1C(F)(F)F` (stereo not shown) [Example 49, 6-[[(Phenylmethyl)amino]sulfonyl]-2-trifluoromethyl-2H-1-benzopyran-3-carboxylic acid] had a melting point of 223.3 to 224.4 °C. The compound further gave a concentration for half-maximal inhibition (IC50) against COX-2 [1] of 24 µM. The IC50 on COX-1 was more than 100 µM. Further, the IC50 on COX-2 [2] was found to be 31 µM.

Compound `C#Cc1cc2c(cc1Cl)C=C(C(=O)O)C(C(F)(F)F)O2` (stereo not shown) [Example 181, 6-Chloro-7-ethynyl-2-(trifluoromethyl)-2H-1-benzopyran-3-carboxylic acid] gave a melting point of more than 300 °C. On COX-2 [1], the IC50 was 1.5 µM. Further, the IC50 at COX-1 is more than 100 µM. At COX-2 [2], the half-maximal inhibitory concentration (IC50) was more than 100 µM.

Turning to `O=C(O)C1=Cc2cc(Cl)c(Oc3ccc(F)c(F)c3)cc2OC1C(F)(F)F` (stereo not shown) [Example 198, 6-Chloro-7-(3,4-difluorophenoxy)-2-(trifluoromethyl)-2H-1-benzopyran-3-carboxylic acid], the melting point was in the range of 191.9 to 193.1 °C. This compound also showed a half-inhibitory concentration (IC50) on COX-2 [1] of less than 0.1 µM. Further, the 50% inhibitory concentration (IC50) on COX-1 came to 12.4 µM. For the same compound, the IC50 at COX-2 [2] is less than 0.1 µM.

For the compound `Cc1cccc(C)c1Oc1cc2c(cc1Cl)C=C(C(=O)O)C(C(F)(F)F)O2` (stereo not shown) [Example 190, 6-Chloro-7-(2,6-dimethylphenoxy)-2-(trifluoromethyl)-2H-1-benzopyran-3-carboxylic acid], the melting point lay in the range of 252.7 to 258.6 °C. The same compound registered an IC50 at COX-2 [1] of 0.5 µM. Further, the IC50 on COX-1 was determined as 37.4 µM. In addition, on COX-2 [2], the concentration for half-maximal inhibition (IC50) came to 0.5 µM.

As for `O=C(O)C1=Cc2cc(SC(F)(F)F)ccc2OC1C(F)(F)F` (stereo not shown) [Example 91, 2-(Trifluoromethyl)-6-[(trifluoromethyl)thio]-2H-1-benzopyran-3-carboxylic acid], the 50% inhibitory concentration (IC50) at COX-2 [1] is less than 0.1 µM; at COX-1, 36 µM; at COX-2 [2], 0.2 µM.

`O=C(O)C1=Cc2cc(Cl)cc(Br)c2OC1C(F)(F)F` (stereo not shown) [Example 15, 8-Bromo-6-chloro-2-trifluoromethyl-2H-1-benzopyran-3-carboxylic acid] had a melting point of 227.8 to 228.9 °C. On COX-2 [1], this compound showed a concentration for half-maximal inhibition (IC50) of more than 0.1 µM. Moreover, the IC50 on COX-1 came out at 44 µM. Moreover, the IC50 at COX-2 [2] was 134 µM.

As to `CSc1ccc2c(c1)C=C(C(=O)O)C(C(F)(F)F)O2` (stereo not shown) [Example 2, 6-(Methylthio)-2-(trifluoromethyl)-2H-1-benzopyran-3-carboxylic acid], the half-inhibitory concentration (IC50) was less than 0.1 µM against COX-2 [1], 5 µM on COX-1 and less than 0.1 µM on COX-2 [2].

As to `O=C(O)C1=Cc2cc(OC(F)(F)F)ccc2O[C@@H]1C(F)(F)F` [Example 67, (S)-6-Trifluoromethoxy-2-trifluoromethyl-2H-1-benzopyran-3-carboxylic acid], the IC50 on COX-1 came out at 6.7 µM.

Turning to `O=C(O)C1=Cc2cc(Cl)c(Oc3ccccn3)cc2OC1C(F)(F)F` (stereo not shown) [Example 202, 6-Chloro-7-[2-pyridinyloxy]-2-(trifluoromethyl)-2H-1-benzopyran-3-carboxylic acid], the melting point lay in the range of 234.2 to 235.4 °C. In addition, the IC50 on COX-1 is 42.8 µM. For the same compound, at COX-2 [2], the IC50 was less than 0.1 µM.

For `COc1cc(Br)cc2c1OC(C(F)(F)F)C(C(=O)O)=C2` (stereo not shown) [Example 47, 6-Bromo-8-methoxy-2-trifluoromethyl-2H-1-benzopyran-3-carboxylic acid], the 50% inhibitory concentration (IC50) is 1.9 µM against COX-2 [1], more than 100 µM at COX-1 and 1.7 µM on COX-2 [2].

Regarding `Cc1cc2c(cc1Cl)C=C(C(=O)O)C(C(F)(F)F)S2` (stereo not shown) [Example 152, 6-Chloro-7-methyl-2-(trifluoromethyl)-2H-1-benzothiopyran-3-carboxylic acid], the half-inhibitory concentration (IC50) is less than 0.1 µM at COX-2 [1], 10 µM on COX-1 and less than 0.1 µM on COX-2 [2].

As for `O=C(O)C1=Cc2cc(C(F)(F)F)ccc2OC1C(F)(F)F` (stereo not shown) [Example 82, 2,6-Bis(trifluoromethyl)-2H-1-benzopyran-3-carboxylic acid], the half-maximal inhibitory concentration (IC50) at COX-1 is 5.6 µM.

For the compound `O=C(O)C1=Cc2cc(S(=O)(=O)NCc3ccccc3)cc(Cl)c2OC1C(F)(F)F` (stereo not shown) [Example 57, 8-Chloro-6-[[(phonylmethyl)amino]sulfonyl]-2-trifluoromethyl-2H-1-benzopyran-3-carboxylic acid], the IC50 is 21 µM against COX-2 [1], more than 100 µM at COX-1 and 21 µM at COX-2 [2].

Consider `COc1ccc(Oc2ccc3c(c2)C=C(C(=O)O)C(C(F)(F)F)O3)cc1` (stereo not shown) [Example 7, 6-(4-Methoxyphenoxy)-2-(trifluoromethyl)-2H-1-benzopyran-3-carboxylic acid], for which the melting point lay within 181.7 to 182.9 °C. In addition, the half-inhibitory concentration (IC50) at COX-1 was 1 µM. On COX-2 [2], the concentration for half-maximal inhibition (IC50) was less than 0.1 µM.

As to `O=C(O)C1=Cc2cc(C(=O)c3ccccc3)ccc2OC1C(F)(F)F` (stereo not shown) [Example 96, 6-Benzoyl-2-(trifluoromethyl)-2H-1-benzopyran-3-carboxylic acid], the melting point fell in the range of 269.8 to 270.8 °C. On COX-2 [1], this compound yielded an IC50 of 0.2 µM. Besides, the 50% inhibitory concentration (IC50) on COX-2 [2] came out at 0.3 µM.

Take `CC(C)(C)NS(=O)(=O)c1ccc2c(c1)C=C(C(=O)O)C(C(F)(F)F)O2` (stereo not shown) [Example 54, 6-[(1,1-Dimethylethyl)aminosulfonyl]-2-trifluoromethyl-2H-1-benzopyran-3-carboxylic acid]: the melting point fell in the range of 229.3 to 233.5 °C. This compound also yielded an IC50 against COX-2 [1] of 19 µM.
